According to paper PMC4667280, “Crystal structure of FadD32, an enzyme essential for mycolic acid biosynthesis in mycobacteria” (Scientific Reports, 2015):

Target: T1, MsFadD32 (full-length FadD32 from M. smegmatis) (Mycolicibacterium smegmatis, UniProt A0R618)
T1 construct: full-length (N-terminal domain 1-483, C-terminal domain 484-630), expressed in E. coli BL21(DE3) as SUMO (SMT3) fusion; crystal of the SUMO fusion
T1 sequence (A0R618 1-630): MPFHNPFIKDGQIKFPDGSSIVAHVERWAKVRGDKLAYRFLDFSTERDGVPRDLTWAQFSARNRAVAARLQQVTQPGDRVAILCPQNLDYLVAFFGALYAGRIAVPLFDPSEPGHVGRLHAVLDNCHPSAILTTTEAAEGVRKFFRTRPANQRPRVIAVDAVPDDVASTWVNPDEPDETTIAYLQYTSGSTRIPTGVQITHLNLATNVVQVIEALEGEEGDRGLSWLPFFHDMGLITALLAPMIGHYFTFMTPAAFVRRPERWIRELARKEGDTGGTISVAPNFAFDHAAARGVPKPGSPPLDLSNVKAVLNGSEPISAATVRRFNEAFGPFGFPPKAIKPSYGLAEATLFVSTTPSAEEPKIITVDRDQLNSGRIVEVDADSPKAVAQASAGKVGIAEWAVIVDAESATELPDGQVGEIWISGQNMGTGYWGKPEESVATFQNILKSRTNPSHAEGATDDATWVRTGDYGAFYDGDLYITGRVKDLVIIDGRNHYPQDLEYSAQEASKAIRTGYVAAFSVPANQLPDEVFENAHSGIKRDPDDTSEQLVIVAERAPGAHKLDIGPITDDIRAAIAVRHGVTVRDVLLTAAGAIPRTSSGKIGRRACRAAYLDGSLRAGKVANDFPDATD
Test: isothermal titration calorimetry; crystal structure of the complex at […] Å
Type: binding

Nc1ncnc2c1ncn2[C@@H]1O[C@H](COP(=O)(O)OP(=O)(O)OP(=O)(O)O)[C@@H](O)[C@H]1O [ATP]
Kd: ~36 µM
